“Also recorded” adds a separate entry of the source.
Legend:
SCD1 = SCD1 gene expression in adipose tissue of LDLR−/− mice (qPCR); type: in vivo, mouse; conditions: 30 mg/kg IP daily, vs control
Protocol: (§1) FIGS. 30A-30E are graphs showing expression of various genes in tissues of HFD-fed LDLR−/− mice following 6 weeks of daily IP administration of MD20 (30 mg/kg) or a vehicle control. Mice were fasted for 5 hours at the conclusion of the experiment, liver and white adipose tissue (“WAT”) samples were collected, and gene expression was measured by qRT-PCR. Expression of glucose transporter 4 (GLUT4; FIG. 30A) and stearoyl-CoA-desaturase 1 (SCD1; FIG. 30B) was measured in adipose tissue, and expression of Glucose-6-phosphatase (G6P; FIG. 30C), Activating Transcription Factor 4 (ATF4; FIG. 30D), and 3-hydroxy-3-methylglutaryl (HMGCS; FIG. 30E) was measured in liver tissue. Data represent mean±SEM; statistical differences were determined using two tailed student's t-test.
(§2) Gene expression analyses: Livers and adipose tissue were collected from 5 h-fasted animals and snap-frozen in liquid nitrogen. RNA was isolated from frozen liver tissue using TRIzole (Sigma, UK) and cDNA was synthesized from 1 μg RNA using bioscript cDNA synthesis kit (Bioline, UK), oligo (dT) 18 (SEQ ID NO: 170), and random hexamer primers.
(§3) Genes of interest were amplified by quantitative PCR (qPCR) using gene-specific primers and GoTaq qPCR master mix (Promega, Madison, WI, USA).

[1] = Caco-2 permeability assay; type: in vitro ADME, human; conditions: human, Papp(B-A)/Papp(A-B), 120 min
Protocol: (§4) Permeability (Caco-2 assay): Caco 2 cells were used as an in vitro model of the human intestinal epithelium and to permit assessment of the intestinal permeability of potential drugs. Test compound was added to either the apical or basolateral side of a confluent monolayer of Caco 2 cells and permeability was measured by monitoring the appearance of the test compound on the opposite side of the monolayer using LC-MS/MS. When performing a bi-directional assay, the efflux ratio (ER) was calculated from the ratio of B-A and A-B permeabilities.
(§5) Briefly, Caco 2 cells obtained (ATCC) were used between passage numbers 40 and 60. Cells were seeded on to Transwell plates at 1×10^5 cells/cm^2. The cells were cultured in DMEM and media was changed every two or three days. On day 20, the permeability study was performed. […]
(§6) Test and control compounds were quantified by LC-MS/MS cassette analysis using a 7-point calibration with appropriate dilution of the samples. […] The starting concentration (C0) was determined from the dosing solution and the experimental recovery was calculated from C0 and both apical and basolateral compartment concentrations.
(§7) Data Analysis: The permeability coefficient (Papp) for each compound was calculated from the following equation: […]
(§8) For bi directional experiments, an efflux ratio (ER) was calculated from mean A-B and B-A data using the following equation: […]

Caco-2 cells = assay: Caco-2 permeability assay; type: in vitro ADME, human
Protocol: as §4, §5, §6, §7, §8

HMGCS = HMGCS gene expression in liver of LDLR−/− mice (qPCR); type: in vivo, mouse; conditions: 30 mg/kg IP daily, vs control
Protocol: as §1, §2, §3

ATF4 = ATF4 gene expression in liver of LDLR−/− mice (qPCR); type: in vivo, mouse; conditions: 30 mg/kg IP daily, vs control
Protocol: as §1, §2, §3

GLUT4 = GLUT4 gene expression in adipose tissue of LDLR−/− mice (qPCR); type: in vivo, mouse; conditions: 30 mg/kg IP daily, vs control
Protocol: as §1, §2, §3

[2] = In vivo biodistribution / pharmacokinetics in C57/BL6 mice; parameters: species or system mouse; conditions: 30 mg/kg IP
Protocol: FIG. 6 is a graph showing MD20 concentrations in the indicated tissues in a mouse following intraperitoneal (IP) administration of the peptide at a dose of 30 mg/kg. Tissue samples were collected at 0, 0.25, 0.5, 1, 2, 4, 8, and 24 hours post-injection.
Biodistribution: In vivo pharmacokinetic assessments of biodistribution of MD20 were performed in C57/BL6 male mice. All animals were maintained under a 12 h light/dark cycle with free access to food and water, where temperature and humidity was controlled according to UK Home Office regulations. MD20 compound was dissolved in PBS and administered to animals via intraperitoneal (IP) injection at a dose of 30 mg/kg. Mice were sacrificed at eight different time points (0.25, 0.5, 1, 3, 4, 6, 8 and 24 h house post-dosing; n=3 animals per time point, 24 animals in total). Terminal blood (in EDTA-containing tubes for plasma), perfused liver, muscle, adipose, kidney and brain samples were collected and kept on dry ice. Blood samples were centrifuged (4 °C, 21,100 g for 5 min) and the resulting plasma was transferred in to corresponding tubes. All samples were analyzed using LC-MS and appropriate methods.

For Ac-PRPPKR-NH2 [MD20, Ac-PRPPKR-NH2], the “SCD1 expression in adipose tissue” value (SCD1) was “increased”, the efflux ratio at 2 h [1] was 0.252 and the “permeation of cells relative to antihypertensive drugs” value (Caco-2 cells) was “able to permeate the cells at the same rate as some antihypertensive drugs (e.g., nicardipine)”. The HMGCS expression (HMGCS) was “upregulated”, the “ATF4 expression in liver” value (ATF4) was “decreased” and the “GLUT4 gene expression in adipose tissue” value (GLUT4) was “increased”. The “detection in most tissues and plasma, time post-administration” value [2] was “up to 5 h”, the “stability and bioavailability in vivo” value [2] was “good stability and bioavailability in vivo” and the detection in liver ([2]; any time point) was “No MD20 was detected in the liver; also recorded: not detected in liver tissue at any time point”.
